In patent US8519006B2, “Use of sphingosine-1 phosphate (S1P) receptor agonists for the treatment of brain degenerative diseases” (Novartis AG, priority 2003, dated 2013):
Like-named read-outs stand apart in the source and are kept apart here.

Legend:
human monocytes [1] = assay: Monocyte chemotaxis toward Aβ precursor protein (Aβ-PP); assay type: cell-based
human monocytes [2] = assay: Monocyte chemotaxis toward Aβ (48-blindwell microchemotaxis chamber); assay type: cell-based
Acute toxicity (LD50) [3] = conditions: monkey, in vivo, po
[4] = test system: subjects exhibiting mild to moderate Alzheimer dementia; assay: Clinical trial, EEG and psychometric tests; assay type: in vivo, human; conditions: ca. 0.25 to ca. 10 mg/p.o. once or divided 2 or 3×; tests at 60, 120 and 180 minutes
Acute toxicity (LD50) [5] = conditions: rat, in vivo, po
[6] = monocytes pre-incubated with enzyme blocker, washed, chemotaxis toward Aβ-PP (1 pmol/l), GFX 500 nmol/l, IBMX 10 ng/ml, Tyrphostin-23 10 ng/ml, WTN 10 nmol/l, CTX 1 nmol/l, PTX 1 nmol/l, Medium 1.639 (0.076)
[7] = monocytes pre-incubated with enzyme blocker, washed, chemotaxis toward Aβ (1 pmol/l), GFX 500 nmol/l, IBMX 10 ng/ml, Tyrphostin-23 10 ng/ml, WTN 10 nmol/l, CTX 1 nmol/l, PTX 1 nmol/l, Medium 1.786 (0.078)

SMILES	Chemotaxis Index Aβ-PP Mean (+/−SEM) (human monocytes [1]; [6])	Chemotaxis Index Aβ Mean (+/−SEM) (human monocytes [2]; [7])	other results
CN(C)CCCn1cc(C2=C(c3c[nH]c4ccccc34)C(=O)NC2=O)c2ccccc21 [GFX]	1.098 (0.10)	1.143 (0.08)	–
CC(C)Cn1c(=O)n(C)c(=O)c2[nH]cnc21 [IBMX]	1.208 (0.09)	1.234 (0.06)	–
CCCCCCCCc1ccc(CCC(N)(CO)CO)cc1.Cl [Compound A, 2-amino-2-[2-(4-octylphenyl)ethyl]propane-1,3-diol]	–	–	LD50 (Acute toxicity (LD50) [3]): > 10 mg/kg; condition as evidenced by EEG results and psychometric tests compared with placebo [4]: improved condition; Chemotaxis Mean (+/−SEM) (human monocytes [2]; chemotaxis index, monocytes incubated 20 min with 2 ng/ml, washed, chemotaxis toward Aβ [1 pmol/L], Medium 1.825 (0.14)): 1.077 (0.18); LD50 (Acute toxicity (LD50) [5]): > 10 mg/kg
COC[C@H]1OC(=O)c2coc3c2[C@@]1(C)C1=C(C3=O)[C@@H]2CCC(=O)[C@@]2(C)C[C@H]1OC(C)=O [WTN]	1.115 (0.08)	1.023 (0.05)	–
N#CC(C#N)=Cc1ccc(O)c(O)c1 [Tyrphostin-23]	–	–	Chemotaxis Index Aβ-PP Mean (+/−SEM) (human monocytes [1]): 1.398 (0.07); Chemotaxis Index Aβ Mean (+/−SEM) (human monocytes [2]): 1.435 (0.04)
